Data on seven molecules can be found in paper PMC9142968, “Nitro-Group-Containing Thiopeptide Derivatives as Promising Agents to Target Clostridioides difficile” (Pharmaceuticals, 2022).

The term MIC denotes the lowest concentration found to suppress growth. Broadly, the fraction unbound is the share of the substance not bound to proteins or other matrix. Read a low fraction unbound as little free substance. A word on the fraction remaining: it is the share of the starting amount still present when the sample was taken. As a reminder, the MIC50 is the lowest concentration that inhibits either 50% of growth or 50% of the strains tested, depending on the study.

The test system of series [1] is S. aureus. Put plainly: MIC against Gram-positive/Gram-negative panel. Format: cell-based. As to conditions: Staphylococcus aureus.
Series [2] concerns P. aeruginosa. Put plainly: MIC against Gram-positive/Gram-negative panel. As to conditions: Pseudomonas aeruginosa, ATCC27853. The class given is cell-based.
Series [3] relates to E. faecium. Description: MIC against Gram-positive/Gram-negative panel. Format: cell-based. As to conditions: Enterococcus faecium.
The subject of series [4] is E. faecalis. Put plainly: MIC against Gram-positive/Gram-negative panel. Format: cell-based. As to conditions: Enterococcus faecalis.
Series [5] deals with K. pneumoniae. Put plainly: MIC against Gram-positive/Gram-negative panel. Format: cell-based. To be noted: Klebsiella pneumoniae, ATCC10031.
For series [6], the system named is A. baumannii. Put plainly: MIC against Gram-positive/Gram-negative panel. The class given is cell-based. As to conditions: Acinetobacter baumannii, ATCC17904.
The test system of series [7] is E. coli. Put plainly: MIC against Gram-positive/Gram-negative panel. The class given is cell-based. As to conditions: Escherichia coli, ATCC25922.
Series [8] in a line: in vitro. As to conditions: human, plasma.
Series [9] in a line: Plasma stability. Format: in vitro ADME. As to conditions: human plasma, 30 min; read-out: PS % Remaining (30 min). As to the method: No significant metabolic liabilities were noted. Incubation of AJ-024 for 30 min with human liver microsomes and with human plasma proteins returned 63.8% and 95.9% of unchanged compound, respectively.
Series [10] addresses CYP2C19 (Homo sapiens, UniProt P33261). Put plainly: Inhibition of CYP enzyme activity (S-mephenytoin probe). To be noted: test compound 10 uM; activity expressed as percentage of control.
Series [11] has as its system C. difficile ribotype 027. Put plainly: Time-kill assay. Format: cell-based, Clostridioides difficile. As to conditions: C. difficile ribotype 027, at 1×, 2× and 4× MIC; bactericidal = ≥3 log10 CFU/mL reduction vs starting inoculum. As to the method: The time-kill studies were performed by the CLSI method. […] Vancomycin was diluted in distilled water and AJ-024 was diluted in 1% (v/v) DMSO. […] Samples were removed at 0, 3, 6, and 24 h post inoculation, and serial 10-fold dilutions were performed. The number of viable cells were determined on BHI agar containing 0.5% yeast extract and 5% defibrinated sheep blood after 24 h of incubation. The plates were incubated at 37 ℃ in an anaerobic chamber. Antimicrobials were considered bactericidal at the lowest concentration that reduced the original inoculum by 3 log 10 CFU/mL at each of the time periods and bacteriostatic if the inoculum was reduced by 0 to 3 log 10 CFU/mL.

Series [12] deals with C. difficile. To be noted: treatment of CDI; background statement of the introduction; cited from earlier work.
Series [13] deals with C. difficile ribotype 027. Description: Mouse IBD-C. difficile comorbidity infection model. Format: in vivo. To be noted: mice, DSS-induced IBD + C. difficile ribotype 027, 30 mg/kg once daily oral gavage, observed period of 15 days. As to the method: C. difficile ribotype 027 was grown on blood agar plate and incubated for two days at 37 ℃ in an anaerobic chamber and sub-cultured on 70:30 sporulation medium to facilitate the sporulation of C. difficile ribotype 027. Briefly, the sporulation medium consists of 70% SMC (Bacto peptone 90 g, protease peptone 5 g, NH4SO4 1 g, tris base 1.5 g, agar 15 g per liter) and 30% BHIS (BHI agar with 0.5% yeast extract) agar. For inoculation, bacterial colonies were suspended in 0.9% saline solution and further diluted with saline solutions to adjust OD (Optical Density) 1.0 at 1/10 of original saline solutions. Groups of five male C57BL/6J mice were injected orally with a single 0.5 mL dose of the bacterial suspension.
All animal experiments were conducted in accordance with the ethical guidelines of the Ethics Review Committee for Animal Experimentation at Handong Global University (Republic of Korea, protocol #HGU-20211214-20). C57BL/6J male (4-week-old male weighing 20 to 22 g, Daehan Bio Link Co., Ltd., Eumseong, Korea) 5 mouse per group was used in C. difficile infection model. Mice were maintained in animal chambers kept at 23 ± 2 ℃ with 55% ± 20% relative humidity. An amount of 2% dextran sodium sulfate (DSS, MP biomedical, Irvine, CA, USA) was inoculated by drinking water for 5 days to cause colitis in mice. […]

Series [14] deals with C. difficile clinical isolates. Put plainly: MIC by agar dilution, classified C. difficile clinical isolates (South Korea). The class given is cell-based, Clostridioides difficile.
The subject of series [15] is C. difficile. Description: MIC by agar dilution, representative C. difficile strains. The class given is cell-based. To be noted: Clostridioides difficile.
Setting [16] is: ATCC25923, S. aureus ATCC 25923, read-out: MIC.
Setting [17] is: ATCC43300, S. aureus ATCC 43300, read-out: MIC.
[18] abbreviates: S. aureus clinical isolate, read-out: MIC.
The mark [19] stands for this setting: P. aeruginosa ATCC 27853, read-out: MIC.
[20] abbreviates: ATCC19434, E. faecium ATCC 19434, read-out: MIC.
Setting [21] is: E. faecium clinical isolate, read-out: MIC.
Where [22] appears, read: ATCC29212, E. faecalis ATCC 29212, read-out: MIC.
Where [23] appears, read: E. faecalis clinical isolate, read-out: MIC.
[24] abbreviates: K. pneumoniae ATCC 10031, read-out: MIC.
Where [25] appears, read: A. baumannii ATCC 17904, read-out: MIC.
Where [26] appears, read: E. coli ATCC 25922, read-out: MIC.

Values after ≈ are worked out from the molar mass of the structure shown. Like-named read-outs stand apart in the source and are kept apart here.

Sequence of CYP2C19 (P33261 whole entry): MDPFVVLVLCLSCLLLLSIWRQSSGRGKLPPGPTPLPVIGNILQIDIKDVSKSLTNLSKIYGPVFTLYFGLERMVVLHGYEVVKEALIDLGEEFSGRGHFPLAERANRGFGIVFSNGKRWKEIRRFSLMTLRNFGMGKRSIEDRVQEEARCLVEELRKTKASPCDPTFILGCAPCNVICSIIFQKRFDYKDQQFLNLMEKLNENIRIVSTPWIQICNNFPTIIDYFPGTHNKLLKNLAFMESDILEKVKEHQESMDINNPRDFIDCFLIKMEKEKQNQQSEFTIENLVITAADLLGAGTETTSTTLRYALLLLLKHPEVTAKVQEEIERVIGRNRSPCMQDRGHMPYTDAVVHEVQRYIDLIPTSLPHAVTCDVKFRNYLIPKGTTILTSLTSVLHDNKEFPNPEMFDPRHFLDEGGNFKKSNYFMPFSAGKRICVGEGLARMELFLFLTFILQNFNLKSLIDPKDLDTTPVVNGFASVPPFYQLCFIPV

As for `CC=C(NC(=O)c1csc(-c2csc(-c3ccc4c(n3)-c3csc(n3)C(C(C)O)NC(=O)c3csc(n3)C(C(C)C)NC(=O)c3csc(n3)C(=CC)NC(=O)C(C(C)O)NC(=O)c3csc-4n3)n2)n1)C(=O)NCCn1c([N+](=O)[O-])cnc1C` (centres unmarked) [AJ-024], the MIC in [1] (setting [16]) was 0.25 µg/mL (≈ 0.202 µM); in [1] (setting [17]), 0.25 µg/mL (≈ 0.202 µM); in series [1] (setting [18]) it was 0.5 µg/mL (≈ 0.403 µM); in series [2] (setting [19]), more than 32 µg/mL; in series [3] (setting [20]), 0.25 µg/mL (≈ 0.202 µM); in series [3] (setting [21]), 0.5 µg/mL (≈ 0.403 µM). Besides, the MIC in [4] (setting [22]) was 0.25 µg/mL (≈ 0.202 µM); in [4] (setting [23]) it was 0.25 µg/mL (≈ 0.202 µM); in series [5] (setting [24]), more than 32 µg/mL; in series [6] (setting [25]), more than 32 µg/mL; in [7] (setting [26]), more than 32 µg/mL.
Turning to `C[C@@H]1C[C@H]2[C@@H]3CCC4=CC(=O)C=C[C@]4(C)[C@@]3(F)[C@@H](O)C[C@]2(C)[C@@]1(O)C(=O)CO` [Dexamethasone, reference compound], the fraction unbound at 4 h, 10 μM in series [8] was 0.212.
For `CCOC(=O)[C@H](CCc1ccccc1)N[C@@H](C)C(=O)N1CCC[C@H]1C(=O)O` [Enalapril], the share remaining at 0.5 h in series [9] amounted to 95.2%.
For `CC(=O)N1CCN(c2ccc(OCC3COC(Cn4ccnc4)(c4ccc(Cl)cc4Cl)O3)cc2)CC1` (centres unmarked) [Ketoconazole, reference compound], in [10], the “CYP Inhibition 2C19” value worked out at 97.6.
In the case of `CC(=O)NC[C@H]1CN(c2ccc(N3CCOCC3)c(F)c2)C(=O)O1` [LIZ, Linezolid], the MIC in [1] (setting [16]) was 2 µg/mL (≈ 5.93 µM); in series [1] (setting [17]) it was 2 µg/mL (≈ 5.93 µM); in series [1] (setting [18]), 1 µg/mL (≈ 2.96 µM); in [2] (setting [19]), more than 32 µg/mL; in [3] (setting [20]), 2 µg/mL (≈ 5.93 µM); in series [3] (setting [21]) it was 2 µg/mL (≈ 5.93 µM). Moreover, the MIC in series [4] (setting [22]) was 2 µg/mL (≈ 5.93 µM); in [4] (setting [23]), 4 µg/mL (≈ 11.9 µM); in series [5] (setting [24]), more than 32 µg/mL; in series [6] (setting [25]), more than 32 µg/mL; in series [7] (setting [26]), more than 32 µg/mL.
In the case of `CCN(CC)CCOC(=O)c1ccc(N)cc1` [Procaine], the amount remaining at 0.5 h in [9] was determined as 1.4%.
For `CN[C@H](CC(C)C)C(=O)N[C@H]1C(=O)N[C@@H](CC(N)=O)C(=O)N[C@H]2C(=O)N[C@H]3C(=O)N[C@H](C(=O)N[C@H](C(=O)O)c4cc(O)cc(O)c4-c4cc3ccc4O)[C@H](O)c3ccc(c(Cl)c3)Oc3cc2cc(c3O[C@@H]2O[C@H](CO)[C@@H](O)[C@H](O)[C@H]2O[C@H]2C[C@](C)(N)[C@H](O)[C@H](C)O2)Oc2ccc(cc2Cl)[C@H]1O` [Vancomycin], the “Killing activity (bactericidal / bacteriostatic)” value in [11] is given as “bacteriostatic”. In addition, the MIC in [1] is more than 32 µg/mL; in [1] (ATCC25923) it was 0.5 µg/mL (≈ 0.345 µM); in series [1] (ATCC43300) it was 0.5 µg/mL (≈ 0.345 µM); in series [2], more than 32 µg/mL; in [3] it was more than 32 µg/mL; in series [3] (ATCC19434), 1 µg/mL (≈ 0.69 µM). Moreover, the MIC in series [4] was more than 32 µg/mL; in series [4] (ATCC29212), 0.5 µg/mL (≈ 0.345 µM); in series [5] it was more than 32 µg/mL; in [15] (ATCC9689), 1 µg/mL (≈ 0.69 µM); in series [15] (ATCC17858), 1 µg/mL (≈ 0.69 µM); in [15] (ATCC43255), 1 µg/mL (≈ 0.69 µM). The minimal inhibitory concentration (MIC) is 1 µg/mL (≈ 0.69 µM) in series [15] (ATCC51695), 1 µg/mL (≈ 0.69 µM) in [15] (ATCCBAA1871), more than 32 µg/mL in series [6] and more than 32 µg/mL in [7]. Further, the Rate of relapse in series [12] is recorded as 25% to 30%. For the same molecule, the Survival rate in series [13] is on record as 80%. In series [14], this molecule had an MIC range of 0.5 to 2 µg/mL. This molecule also came in with an MIC50 in series [14] (Clostridioides difficile) of 1 µg/mL (≈ 0.69 µM).
